In patent US20230263742A1, “A LIPID” (Stemirna Therapeutics Co., Ltd., priority 2021, published 2023):

System: Balb/C mice
Assay: Luc expression in injection site and liver site after intramuscular administration (Example 5)
Format: in vivo
Details: 5 μg Luc mRNA-LNP (DSPC) intramuscularly, Balb/C mice n=3, 6 h
Experimental: Further bioluminescence studies were performed to investigate the delivery efficiency of nanoparticle compositions including various lipid compounds according to the present invention. The formulations containing reference cationic lipid M62, M63, M118, and M119 (corresponding to Compound 62, 63, 118, and 119 in PCT/US2018/022717 (WO2018/170306), respectively) were evaluated for comparison. Nanoparticle compositions including DSPC as an optimized phospholipid, cholesterol as a structural lipid, PEG-DMG as a PEG lipid, an RNA, and a compound above mentioned were prepared according to or via methods similar to those described in Examples 1 and 2. The ratios of the lipids were 50:10:38.5:1.5 mol % for the lipid of the present invention: DSPC: cholesterol: PEG-DMG. 5 μg of LNP solution containing luciferase mRNA was administered intramuscularly to Balb/C mice (n=3). 6 hours after administration, mice were injected intraperitoneally with 0.15 mg/kg of D-luciferin substrate. Within 15 minutes after the injection of the substrate, the fluorescence signal intensity in injection site and liver site were tested under a small animal in vivo imaging instrument. Tables 3-4 summarize the fluorescence signal intensity of the nanoparticle compositions including present invention lipids and the reference compounds in injection site and liver site.

Structure (SMILES)	Luc expression in injection site, I.M. injection site, 6 h (ratio relative to SW-II-134-3 set as 1)	Luc expression in liver site, Liver site upon I.M., 6 h (ratio relative to SW-II-137-1 set as 1)
CCCCCCCCC(CCCCCCCC)OC(=O)CCCCCCCN(CCO)CCCCCCCC(=O)OCCCCc1ccc(CCCC)cc1 [SW-II-138-1]	1.972	1.430
CCCCCCCCC(CCCCCCCC)OC(=O)CCCCCCCN(CCO)CCCCCCCC(=O)OCCCc1ccc(CCCCCC)cc1 [SW-II-137-3]	1.358	1.981
CCCCCCCCC(CCCCCCCC)OC(=O)CCCCCCCN(CCO)CCCCCCC(=O)OCc1ccc(CCCCCC)cc1 [SW-II-127]	1.743	
CCCCCCCCC(CCCCCCCC)OC(=O)CCCCCCCN(CCO)CCCCCCCC(=O)OCc1cccc(CCCCCC)c1 [SW-II-122]	1.321	
CCCCCCCCC(CCCCCCCC)OC(=O)CCCCCCCN(CCO)CCCCCCCC(=O)OCCc1ccccc1CCCC [SW-II-140-2]	2.257	6.991
CCCCCCCCC(CCCCCCCC)OC(=O)CCCCCCCN(CCO)CCCCCCCC(=O)OCCc1ccccc1CCCCCC [SW-II-140-1]	2.450	3.224
CCCCCCCCCOC(=O)CCCCCCCN(CCO)CCCCCCCC(=O)OCCCc1ccc(CCCCC)c(CCCCC)c1 [SW-II-135-1]	1.771	
CCCCCCCCCOC(=O)CCCCCCCN(CCO)CCCCCCCC(=O)OCCc1ccc(CCCC)c(CCCC)c1 [SW-II-134-3]	1.000	
CCCCCCCCC(CCCCCCCC)OC(=O)CCCCCCCN(CCO)CCCCCCCC(=O)OCCCCc1ccc(CCCCCC)cc1 [SW-II-138-3]	1.294	2.850
CCCCCCCCCOC(=O)CCCCCCCN(CCO)CCCCCCCC(=O)OCCc1ccc(CCCCCC)c(CCCCCC)c1 [SW-II-134-1]	1.899	
CCCCCCCCCOC(=O)CCCCCCCN(CCO)CCCCCCCC(=O)OCc1ccc(CCCCCC)c(CCCCCC)c1 [SW-II-115]	1.046	
CCCCCCCCCOC(=O)CCCCCCCN(CCO)CCCCCCCC(=O)OCCCCc1ccc(CCCCCC)c(CCCCCC)c1 [SW-II-136-2]	1.110	1.131
CCCCCCCCC(CCCCCCCC)OC(=O)CCCCCCCN(CCO)CCCCCCCC(=O)OCCCCc1ccc(CCCCC)cc1 [SW-II-138-2]	2.826	3.318
CCCCCCCCC(CCCCCCCC)OC(=O)CCCCCCCN(CCO)CCCCCCCC(=O)OCCc1cccc(CCCC)c1 [SW-II-139-2]	1.440	1.355
CCCCCCCCCOC(=O)CCCCCCCN(CCO)CCCCCCCC(=O)OCCc1ccc(CCCCCCCC)c(CCCCCCCC)c1 [SW-II-134-2]	1.734	
CCCCCCCCCOC(=O)CCCCCCCN(CCO)CCCCCCCC(=O)OCCCc1ccc(CCCCCCC)c(CCCCCCC)c1 [SW-II-135-2]	1.028	
CCCCCCCCC(CCCCCCCC)OC(=O)CCCCCCCN(CCO)CCCCCCCC(=O)OCCc1cccc(CCCCCC)c1 [SW-II-139-1]	1.807	2.355
CCCCCCCCC(CCCCCCCC)OC(=O)CCCCCCCN(CCO)CCCCCCCC(=O)OCCCc1ccc(CCCCC)cc1 [SW-II-137-2]		1.206
CCCCCCCCC(CCCCCCCC)OC(=O)CCCCCCCN(CCO)CCCCCCCC(=O)OCCCc1ccc(CCCC)cc1 [SW-II-137-1]		1.000
